Assay results taken from patent publication US9005579B2 (priority 2010, dated 2015).

Tests used:
sortase = sortase (Staphylococcus aureus, UniProt Q2FV99); conditions: in vitro and in vivo; react with Cys184; cited from earlier work
[1] = D-Ala-D-Ala termini replaced with D-Ala-D-Lac in VRE; cited from earlier work
[2] = system: Protein A negative Staphylococcus aureus derived from strain 8325-4; assay: Growth of S. aureus with sub-MIC antibiotic with or without mouse anti-sortase monoclonal antibody (OD600, 12 h); assay type: cell-based; conditions: sub-MIC antibiotic + tissue culture medium, no Ab
Source text: In a separate set of experiments, we assessed the effect of anti-sortase antibodies, in the presence and absence of antibiotic, on the growth of the staphylococci. Monoclonal supernatants were used for these experiments and tissue culture media used as controls. […] Exemplary growth curve results with monoclonal antibody 7C2 at 1:10 dilution are depicted in FIG. 5. The growth results are tabulated in TABLE 3 below based on final OD readings of multiple growth experiments. In each instance, significant growth inhibition is observed with a combination of sub-MIC antibiotics and anti-sortase antibody.
Protein A negative Staphylococcus aureus derived from strain 8325-4 was grown to OD600 0.5 in Brain-Heart Infusion medium at 37° C. (Patel A H et al (1987) Infect Immun 55(12):3103-3110). When applicable, antibiotics were added to the media at sub-MIC doses.
Mouse anti-sortase monoclonals were added to each cell-antibiotic culture at a dilution of either 1:10 or 1:100. OD600 values were measured every 5 mins for 12 hours in a 96-well spectrophotometer.

[3] = system: Staphylococci (protein A negative S. aureus strain 8325-4); assay: Ampicillin and penicillin MIC (serial 2-fold dilutions, microtiter plate); assay type: cell-based, Staphylococcus aureus; conditions: for highest dilution of antibiotic showing normal growth (sub-MIC used in experiments): 12 h, BHI media; for growth of staphylococci in the presence of sub-MIC of antibiotic: no antibody
Description: The MIC dose of two cell wall affecting antibiotics, ampicillin and penicillin, was determined for the protein A negative S. aureus strain 8325-4.
Serial 2-fold dilutions of penicillin and ampicillin were prepared in a microtiter plate. Overnight culture of Staphylococci were diluted 1:100 in BHI media and 100 ul was added to each well and the plate incubated for 12 h. Wells without antibiotic served as controls. The highest dilution of antibiotic showing normal growth was used for further experiments. Ampicillin at 0.1 ug/ml and Penicillin at 0.02 ug/ml were used in these experiments.

E. coli O111:B4 = conditions: overnight incubation, inhibitory concentrations; cited from earlier work

Chain of sortase (Q2FV99 whole entry): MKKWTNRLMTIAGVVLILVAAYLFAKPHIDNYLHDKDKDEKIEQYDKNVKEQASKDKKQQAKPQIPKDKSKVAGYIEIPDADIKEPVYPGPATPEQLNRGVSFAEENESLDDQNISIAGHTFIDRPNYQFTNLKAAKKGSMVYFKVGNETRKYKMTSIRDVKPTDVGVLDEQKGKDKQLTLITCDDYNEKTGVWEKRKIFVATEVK

C[N+](C)(C)CCSS(C)(=O)=O [MTSET]
sortase inhibition (sortase): inhibit sortase in vitro and in vivo

CN[C@H](CC(C)C)C(=O)N[C@H]1C(=O)N[C@@H](CC(N)=O)C(=O)N[C@H]2C(=O)N[C@H]3C(=O)N[C@H](C(=O)N[C@H](C(=O)O)c4cc(O)cc(O)c4-c4cc3ccc4O)[C@H](O)c3ccc(c(Cl)c3)Oc3cc2cc(c3O[C@@H]2O[C@H](CO)[C@@H](O)[C@H](O)[C@H]2O[C@H]2C[C@](C)(N)[C@H](O)[C@H](C)O2)Oc2ccc(cc2Cl)[C@H]1O [vancomycin]
decrease in vancomycin affinity [1]: 1000 fold

Penicillin [PCN]
Average OD ([2]; control of Ab 1:10): 0.2446 | Final OD Reading 1 ([2]; control of Ab 1:10): 0.218 | Final OD Reading 2 ([2]; control of Ab 1:10): 0.2712 | Average OD ([2]; control of Ab 1:100): 0.3534 | Final OD Reading 1 ([2]; control of Ab 1:100): 0.3508 | Final OD Reading 2 ([2]; control of Ab 1:100): 0.3561 | highest dilution of antibiotic showing normal growth (sub-MIC used in experiments) [3]: 0.02 µg/mL | growth of staphylococci in the presence of sub-MIC of antibiotic [3]: grow similar to control bacteria without antibiotic

CC1(C)S[C@@H]2[C@H](NC(=O)[C@H](N)c3ccccc3)C(=O)N2[C@H]1C(=O)O [AMP, Ampicillin]
Average OD ([2]; control of Ab 1:10): 0.3308 | Final OD Reading 1 ([2]; control of Ab 1:10): 0.2975 | Final OD Reading 2 ([2]; control of Ab 1:10): 0.3641 | Average OD ([2]; control of Ab 1:100): 0.4421 | Final OD Reading 1 ([2]; control of Ab 1:100): 0.4216 | Final OD Reading 2 ([2]; control of Ab 1:100): 0.4627 | highest dilution of antibiotic showing normal growth (sub-MIC used in experiments) [3]: 0.1 µg/mL | growth of staphylococci in the presence of sub-MIC of antibiotic [3]: grow similar to control bacteria without antibiotic

CS(=O)(=O)SCCS(=O)(=O)O [(2-sulfonatoethyl)methane-thiosulfonate]
sortase inhibition (sortase): inhibit sortase in vitro and in vivo

CC(C)(O/N=C(\C(=O)N[C@@H]1C(=O)N2C(C(=O)[O-])=C(C[n+]3ccccc3)CS[C@H]12)c1csc(N)n1)C(=O)O [caftazidime]
HA-1A binding after exposure to the antibiotic (E. coli O111:B4): dose-dependent enhancement of HA-1A binding

gentamicin
HA-1A binding after exposure to the antibiotic (E. coli O111:B4): not enhanced
